Data reported in the supplement of paper PMC4862054.

How the values were obtained:
Assay in all cases: drug sensitivity score (DSS), CellTox Green (DSS (AUC-based score)); higher = stronger drug effect (viability inhibition or cytotoxicity); extreme values may be limits of the assay
Settings in all cases: incubation time: 72 h
MDA-MB-468 = test system: MDA-MB-468
Procedure, shortened: (§1)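 Using 20 µl of cell suspension per well, breast cancer cell lines were seeded into 384-well plates pre-loaded with compound at 5 concentrations in 10-fold steps across a compound-specific 10,000-fold range. Incubation lasted 72 h, after which CellTox Green fluorescence at 485/520 nm and then CellTiter-Glo luminescence, following 10 min at room temperature, were recorded. Each plate was normalised to 0.1 % DMSO and a positive kill control before the drug sensitivity score was derived from the area under the fitted dose-response curve.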

MDA-MB-453 = test system: MDA-MB-453
Procedure, shortened: as §1

DU-4475 = test system: DU-4475
Procedure, shortened: as §1

HDQ-P1 = test system: HDQ-P1
Procedure, shortened: as §1

Hs578T = test system: Hs578T
Procedure, shortened: as §1

MDA-MB-231 = test system: MDA-MB-231
Procedure, shortened: as §1

MCF-10A = test system: MCF-10A
Procedure, shortened: as §1

MFM-223 = test system: MFM-223
Procedure, shortened: as §1

HCC1937 = test system: HCC1937
Procedure, shortened: as §1

CAL-120 = test system: CAL-120
Procedure, shortened: as §1

HCC1599 = test system: HCC1599
Procedure, shortened: as §1

MDA-MB-436 = test system: MDA-MB-436
Procedure, shortened: as §1

HCC1143 = test system: HCC1143
Procedure, shortened: as §1

CAL-51 = test system: CAL-51
Procedure, shortened: as §1

CAL-148 = test system: CAL-148
Procedure, shortened: as §1

CAL-85-1 = test system: CAL-85-1
Procedure, shortened: as §1

Compound	drug sensitivity score (MDA-MB-468)	drug sensitivity score (MDA-MB-453)	drug sensitivity score (DU-4475)	drug sensitivity score (HDQ-P1)	drug sensitivity score (Hs578T)	drug sensitivity score (MDA-MB-231)	drug sensitivity score (MCF-10A)	drug sensitivity score (MFM-223)	drug sensitivity score (HCC1937)	drug sensitivity score (CAL-120)	drug sensitivity score (HCC1599)	drug sensitivity score (MDA-MB-436)	drug sensitivity score (HCC1143)	drug sensitivity score (CAL-51)	drug sensitivity score (CAL-148)	drug sensitivity score (CAL-85-1)
N#Cc1ccc(COC[C@H]2O[C@@H](n3c(NCc4ccc(Cl)c(Cl)c4)nc4c(N)ncnc43)[C@H](O)[C@@H]2O)cc1	0	0	0	0	0	0	0	3.38	0	0	0	0	0	0	0	2.89
COc1cc(O)c2c(c1)/C=C/C[C@H](O)[C@H](O)C(=O)/C=C\C[C@H](C)OC2=O [(5Z)-7-Oxozeaenol]	0	0	4.86	0	8.72	9.09	0	8.77	18.1	0	0	0	0	1.06	16.9	18.5
CNC(=O)c1cccc(-c2ccc3c(N4CCOC[C@@H]4C)nc(N4CCOC[C@@H]4C)nc3n2)c1 [AZD2014]	0	0	0	0	0	0	0	3.63	0	0	0	0	0	0	11	0
CN(C)c1nc(N(C)C)nc(N(C)C)n1 [Altretamine]	0	0	0	0	0	0	0	0	0	0	0	0	0	0	0	0
O=C(/C=C/c1cccc(S(=O)(=O)Nc2ccccc2)c1)NO [Belinostat]	2.85	0.0261	3.83	0	6.63	17.8	10.5	4.75	0	9.87	0	0	0	13	8.43	11.5
Nc1cc(C(F)(F)F)c(-c2cc(N3CCOCC3)nc(N3CCOCC3)n2)cn1 [Buparlisib]	0	0	0	0	2.89	7.38	0.18	0	0	0	0	0	0	6.04	0	0
CNC(=O)c1ccc(N2C(=S)N(c3ccc(C#N)c(C(F)(F)F)c3)C(=O)C2(C)C)cc1F [Enzalutamide]	0	0	0	0	0	0	0	0	0	0	0	0	0	0	0	0
C=C1C[C@@H]2[C@H](CC[C@]3(C)C(=O)CC[C@@H]23)[C@@]2(C)C=CC(=O)C=C12 [Exemestane]	0	0	0	3.28	0	0	0	0	0	0	0	0	0	0	0	1.08
CCOC(=O)CCNc1cc(N2CCc3ccccc3CC2)nc(-c2ccccn2)n1 [GSK-J4]	12.3	7.34	2.65	11.6	20.6	11.1	8.52	8.73	7.05	8.01	2.51	7.09	18.6	11.4	10.9	16.5
Cc1cc(Nc2cc(CN3CCOCC3)c3nc(C)c(Cc4ccc(Cl)cc4F)n3n2)n[nH]1 [Gandotinib]	3.86	0	0	0	7.9	0	0	0	0	0	0	0.139	0	7.6	0	3.97
COc1cc2ncnc(Nc3ccc(F)c(Cl)c3)c2cc1OCCCN1CCOCC1 [Gefitinib]	0	0	0	0	0	0.542	0	0	0	0	0	0	0	0	2.34	4.48
O=C(Nc1ccncc1)C(=O)c1cn(Cc2ccc(Cl)cc2)c2ccccc12 [Indibulin]	3.09	0	0	0	1.65	8.72	0	4.4	0	0.995	0	0	0	12.5	0	11.7
CCc1c2c(nc3ccc(OC(=O)N4CCC(N5CCCCC5)CC4)cc13)-c1cc3c(c(=O)n1C2)COC(=O)[C@]3(O)CC [Irinotecan]	0	0	0	0	1.06	0	0	0	0	0.997	0	0	0	10.7	11.8	0
Oc1ccc2c(c1)CC[C@H](c1ccccc1)[C@@H]2c1ccc(OCCN2CCCC2)cc1 [Lasofoxifene]	0	0	0	0	3.26	0	0	0	0	0	0	0	0	0	0	3.43
COC(=O)c1ccc2c(c1)NC(=O)/C2=C(\Nc1ccc(N(C)C(=O)CN2CCN(C)CC2)cc1)c1ccccc1 [Nintedanib]	2.7	0	0	0	0	7.47	1.89	0	7.85	0	0	1.22	0	6.03	0	0
Cc1[nH]c2ccccc2c1CCNCc1ccc(/C=C/C(=O)NO)cc1 [Panobinostat]	10	4.41	6.99	3.86	18.5	19.9	1.6	6.53	14.2	13.8	4.47	0	6.53	18.2	20.9	17.3
CNC(=O)c1cc(Oc2ccc(NC(=O)Nc3ccc(Cl)c(C(F)(F)F)c3)c(F)c2)ccn1 [Regorafenib]	0	0	0	0	0	0	0	0	3.47	0	0	0	0	0	0	0
CO[C@H]1C[C@@H]2CC[C@@H](C)[C@@](O)(O2)C(=O)C(=O)N2CCCC[C@H]2C(=O)O[C@H]([C@H](C)C[C@@H]2CC[C@@H](OP(C)(C)=O)[C@H](OC)C2)CC(=O)[C@H](C)/C=C(\C)[C@@H](O)[C@@H](OC)C(=O)[C@H](C)C[C@H](C)/C=C/C=C/C=C/1C [Ridaforolimus]	0	0	0	12.6	0	0.968	0	0	0	0	0	4.09	0	0	0	0
c1ccc2c(CCNc3ccc(Nc4ccncc4)cc3)c[nH]c2c1 [Serdemetan]	0	0	1.51	0	0	2.18	0	1.92	0	0	0	0	0	4.55	6.44	0
CC(C)C[C@@H](C(=O)N[C@H](C(=O)OC1CCCC1)c1ccccc1)[C@H](O)C(=O)NO [Tosedostat]	20.1	0	0	10.1	1.64	26.6	0	0	0	13.6	0	10.1	1.52	15.2	0	21.8
COc1cc2c(NC3CCN(C(C)C)CC3)nc(N3CCC(F)(F)CC3)nc2cc1OCCCN1CCCC1 [UNC0642]	5.22	1.18	0	0	0	7.71	2.29	0	1.95	4.13	0	11	0	0	2.77	6.85
COc1cc2/c(=N/c3ccc(Br)cc3F)nc[nH]c2cc1OCC1CCN(C)CC1 [Vandetanib]	0	0	0	1.32	0	3.15	0	0	0	0	0	0	0	0	0	0
COCC[n+]1c2c(n(Cc3cnccn3)c1C)C(=O)c1ccccc1C2=O [YM155]	37.3	12.2	3.34	30.2	5.6	30.1	34.7	11.4	29.5	39	11.8	27.2	23.5	28.2	29.4	42.2
